Laboratory results from paper PMC3062964, “Biomolecular Interaction Study of Cyclolinopeptide A with Human Serum Albumin” (Journal of Biomedicine and Biotechnology, 2011).
Peptide text beside a SMILES is read from it.

Columns and labels:
[1] = target: T1, Human Serum Albumin (HSA, fatty acid free) (Homo sapiens, UniProt P02768); test: SPR binding of CLP-A to immobilized HSA; conditions: for Kd: Kd = 1/Ka, SPR; for Kd / Ka: 1X PBS pH 7.4, 5% DMSO; for Ka: SPR (BiacoreX, CM5 chip, HSA 9–11 kRU), CLP-A 50–200 μM injected in triplicate, dose-response fitted with rectangular hyperbola, global Rmax 2000, standard error of curve-fitting in brackets
T1 construct: purchased Sigma (Oakville, ON)
T1 sequence (P02768 25-609): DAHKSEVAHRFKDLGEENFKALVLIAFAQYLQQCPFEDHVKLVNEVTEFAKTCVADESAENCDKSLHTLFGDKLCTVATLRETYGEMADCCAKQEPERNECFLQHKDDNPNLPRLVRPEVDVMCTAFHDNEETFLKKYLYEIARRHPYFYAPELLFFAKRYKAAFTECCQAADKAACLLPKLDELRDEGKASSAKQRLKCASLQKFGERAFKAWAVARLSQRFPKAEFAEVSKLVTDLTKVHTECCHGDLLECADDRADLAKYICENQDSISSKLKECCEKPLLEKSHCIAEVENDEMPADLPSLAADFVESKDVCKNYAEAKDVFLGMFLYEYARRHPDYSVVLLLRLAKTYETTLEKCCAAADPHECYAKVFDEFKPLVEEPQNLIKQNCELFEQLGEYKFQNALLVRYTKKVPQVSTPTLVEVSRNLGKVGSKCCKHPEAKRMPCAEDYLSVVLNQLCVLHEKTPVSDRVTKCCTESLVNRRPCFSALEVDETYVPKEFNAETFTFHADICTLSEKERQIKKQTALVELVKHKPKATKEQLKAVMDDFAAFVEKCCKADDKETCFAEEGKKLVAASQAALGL
Experimental: Running buffer for all experiments was prepared by diluting a 10X phosphate-buffered saline (PBS) stock solution (100 mM phosphate buffer, 20.7 mM KCl, 1370 mM NaCl, pH 6.7) to a 1X PBS, pH 7.4 solution containing 5% DMSO. Running buffers were filtered and degassed daily before use.
Analyte solutions containing the CLP-A peptides were prepared by diluting the stock solution (10 mM in DMSO) into 1.05X PBS, giving a final 1X PBS, pH 7.4 buffer containing 5% DMSO (same as the running buffer).
All SPR measurements were performed at different temperatures using a BiacoreX instrument equipped with a research-grade CM5 carboxylated-dextran sensor chip (Biacore). The fluidic unit of the instrument was cleaned prior to experiments using the DESORB method (injections of 0.5% sodium dodecyl sulphate, followed by 50 mM glycine, pH 9.5) equipped in the instrument's software. On some occasions a “SUPER-CLEAN” method was also used (injections of 1% CH3COOH, 1 M NaHCO3, 10 mM HCl, and 6 M GndHCl).
The carboxylated-dextran sensor chips were preconditioned prior to HSA immobilization by priming the instrument 3 times with HBS-EP buffer, followed by 3 successive 1 min injections of 50 mM NaOH at 50 μL min^−1. HSA was covalently immobilized onto a CM5 sensor surface at 25°C using standard amine-coupling chemistry. Flow cell 1 (Fc1) and flow cell 2 (Fc2) were activated by a 7 min injection of a 1 : 1 mixture of 0.1 M NHS and 0.4 M EDC using a flow rate of 5 μL min^−1. Immediately after activation, HSA (30 μg mL^−1, 10 mM acetate buffer pH 5.3) was immobilized onto Fc2. A 7 min injection of 1 M EA (pH 8.5) was conducted over Fc1 and Fc2 to deactivate the surfaces. The final HSA concentration immobilized onto the chip was 9–11 kRU.
CLP-A solutions (50–200 μM) were injected in triplicate and flowed over reference and HSA surfaces for 2 min at a flow rate of […], followed by a dissociation phase of 3 min for all experimental temperatures. At the end of the CLP-A injection, the flowing solution was switched to the running buffer until the response returned to the original baseline. Instances where the baseline was not readily achieved, a short pulse of 50% (v/v) DMSO solution was injected at high flow rate to remove any remaining CLP-A. Data were collected at a rate of 5 Hz and processed using the BiaEvaluation V4.2 software. The equilibrium constant, Ka, was determined using the rectangular hyperbola equation [20]:
(1) Req=Rmax Ka[CLP-A]/1+Ka[CLP-A], where Req, Rmax, [CLP-A] are the measured response values, the binding site saturation value, and the concentration of CLP-A, respectively. Curve-fitting was done with Microcal Origin V7.1 using a global Rmax value of 2000.
CLP-A concentration was limited to below 200 μM due to the solubility of the peptide in the buffer. The affinity of interaction was estimated by first assuming that HSA-binding sites were equally available and second that only high affinity sites were occupied in the working concentration range [24]. The Kd and Ka values indicate that affinity increases as the temperature increased. […] To further elucidate the HSA/CLP-A interaction, thermodynamic parameters are extracted using the van't Hoff equation (2) ln Kd=ΔH/R(1/T)−ΔS/R, where R = 8.314 J mol^−1 K^−1. This yields ΔH and ΔS for the interaction to be 204 kJ mol^−1 and 746 J mol^−1 K^−1 respectively. The binding is overall endothermic. This indicates an association with the hydrophobic pockets of HSA and the opening of binding sites. Moreover, DMSO has been used to assist the solubility. Therefore, the entire solvation complex consisting of CLP-A, DMSO and H2O requires energy to expose the binding site. This energy plus the binding energy for interaction in the hydrophobic pockets of HSA result in an overall endothermic process. The large entropy of the endothermic process clearly indicate that binding is entropy-driven. This is due to contribution from breaking of the solvation complex and hydrophobic binding.

HSA = target: T2, HSA (Homo sapiens, UniProt P02768); test: Far-UV circular dichroism, secondary structure of HSA upon CLP-A binding; conditions: HSA 18 μM + CLP-A 50 μM, 10 mM PBS, 5% DMSO, pH 7.4, room temperature, far-UV CD, CDNN V2.1, 210–260 nm
T2 construct: purchased Sigma (Oakville, ON)
T2 sequence (P02768 25-609): as above
Experimental: CD measurements of HSA (18 μM), HSA/CLP-A (18 μM, 50 μM) in 10 mM PBS, 5% DMSO, pH = 7.4 buffer were made with a Pistar-180 CD spectrometer (Applied Photophysics Ltd., Leatherhead, UK) at room temperature. The far-UV region was scanned from 260–180 nm in 0.5 nm steps at a scan rate of 10 nm min^−1 and a bandwidth of 6 nm using a 0.010 cm optical pathlength quartz cuvette. The secondary structure was estimated using the neural network deconvolution software CDNN V2.1 [22]. The near-UV region was scanned from 350–250 nm in 0.5 nm steps at a scan rate of 10 nm min^−1, and a bandwidth of 2 nm using a 10 mm optical pathlength cuvette.
In order to assess if any conformational changes were present upon CLP-A complexation with HSA, we compared the far-UV and near-UV CD spectra of HSA and HSA/CLP-A in the running buffer used in the Biacore experiments shown in Figure 5. CD spectra taken in the far-UV spectral region provide insight to the secondary structure of a protein. […] This region of the spectra corresponds to signals from the phenylalanine, tyrosine, and tryptophan residues on the protein and it provides insight to changes in the tertiary structure of the protein.

Kd ([1]; 20°C): 1320 µM | Ka ([1]; 20°C): 757 (33) M^−1 | Kd ([1]; 25°C): 593 µM | Ka ([1]; 25°C): 1687 (20) M^−1 | Kd ([1]; 30°C): 142 µM | Ka ([1]; 30°C): 7056 (36) M^−1 | Kd ([1]; 37°C): 20 µM | Ka ([1]; 37°C): 50032 (1792) M^−1 | recognition kinetics of binding to the HSA-binding site ([1]; SPR sensorgrams, 50–200 μM, 20–37°C, gradual increase of response to steady state during injection): very slow recognition kinetics | Secondary structure of HSA/CLP-A: Parallel (HSA; HSA alone 6): 6% | Secondary structure of HSA/CLP-A: Antiparallel (HSA; HSA alone 8): 9% | Secondary structure of HSA/CLP-A: Beta-Turn (HSA; HSA alone 15): 16% | Secondary structure of HSA/CLP-A: Rndm. Coil (HSA; HSA alone 27): 29% | Secondary structure of HSA/CLP-A: Helix (HSA; HSA alone 46): 41%
Compound: CC[C@H](C)[C@@H]1NC(=O)[C@H](CC(C)C)NC(=O)[C@H](Cc2ccccc2)NC(=O)[C@H](Cc2ccccc2)NC(=O)[C@@H]2CCCN2C(=O)[C@@H]2CCCN2C(=O)[C@H](C(C)C)NC(=O)[C@H](CC(C)C)NC(=O)[C@H]([C@@H](C)CC)NC1=O [CLP-A, Cyclolinopeptide A] (cyclo(FFLIILVPP))
